Target: T1, recombinant sEH (Homo sapiens, UniProt P34913)
T1 construct: made in house; host or cells: Sf9 insect cells
T1 sequence (P34913 1-555): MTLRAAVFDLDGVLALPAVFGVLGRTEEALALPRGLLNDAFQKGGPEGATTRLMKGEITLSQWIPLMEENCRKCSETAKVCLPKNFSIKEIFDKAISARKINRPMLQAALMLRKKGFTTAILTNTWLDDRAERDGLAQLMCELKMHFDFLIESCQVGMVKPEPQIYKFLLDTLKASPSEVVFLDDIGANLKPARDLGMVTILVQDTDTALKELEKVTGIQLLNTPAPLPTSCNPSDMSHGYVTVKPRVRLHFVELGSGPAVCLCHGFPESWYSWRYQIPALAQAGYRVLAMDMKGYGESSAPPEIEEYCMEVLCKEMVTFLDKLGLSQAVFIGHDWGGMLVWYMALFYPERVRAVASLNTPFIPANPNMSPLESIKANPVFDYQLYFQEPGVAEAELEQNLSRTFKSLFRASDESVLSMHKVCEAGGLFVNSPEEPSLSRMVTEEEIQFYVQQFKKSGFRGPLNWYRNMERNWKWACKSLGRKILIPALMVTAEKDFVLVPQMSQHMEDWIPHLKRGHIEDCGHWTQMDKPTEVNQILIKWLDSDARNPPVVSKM
Experiment: biochemical screening assay for inhibition of soluble epoxide hydrolase (fluorometric, Phome substrate)
How it was run: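 Human sEH from Sf9 cells (2 nM final) was pre-incubated 15 min at 30 °C with compound (0.0001–10 μM), then reacted 60 min at 30 °C with 5 μM Phome in 25 mM Hepes/0.01% albumin. Fluorescence of released 6-methoxy-2-naphthaldehyde was read before substrate and at end; IC50 from % inhibition.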

Structure (SMILES)	IC50 [µM]
Cc1ncccc1O[C@H]1CO[C@H]2[C@@H]1OC[C@@H]2NC(=O)NC1(c2cccnc2)CC1 [Example 238, 1-[(3S,3aR,6S,6aS)-6-(2-Methyl-pyridin-3-yloxy)-hexahydro-furo[3,2-b]furan-3-yl]-3-(1-pyridin-3-yl-cyclopropyl)-urea]	2.06
Cc1ncccc1O[C@H]1CO[C@H]2[C@@H]1OC[C@@H]2NC(=O)NCC1C[C@@H]2CC[C@H]1O2 (stereo partly drawn) [Example 239, 1-[(3S,3aR,6S,6aS)-6-(2-Methyl-pyridin-3-yloxy)-hexahydro-furo[3,2-b]furan-3-yl]-3-[(1R,4S)-1-(7-oxa-bicyclo[2.2.1]hept-2-yl)methyl]-urea]	0.078
Cc1ncccc1O[C@H]1CO[C@H]2[C@@H]1OC[C@@H]2NC(=O)NC1(C)COC1 [Example 240, 1-(3-Methyl-oxetan-3-yl)-3-[(3S,3aR,6S,6aS)-6-(2-methyl-pyridin-3-yloxy)-hexahydro-furo[3,2-b]furan-3-yl]-urea]	3.43
Cc1ncccc1O[C@H]1CO[C@H]2[C@@H]1OC[C@@H]2NC(=O)NC(C)(C)C1CCCCC1 [Example 241, 1-(1-Cyclohexyl-1-methyl-ethyl)-3-[(3S,3aR,6S,6aS)-6-(2-methyl-pyridin-3-yloxy)-hexahydro-furo[3,2-b]furan-3-yl]-urea]	0.117
Cc1ncccc1OC1COC2C(NC(=O)NCC3CCCCC3(C)O)COC12 [Example 242, 1-((1R,2R)-2-Hydroxy-2-methyl-cyclohexylmethyl)-3-[(3S,3aR,6S,-6aS)-6-(2-methyl-pyridin-3-yloxy)-hexahydro-furo[3,2-b]furan-3-yl]-urea]	0.037
Cc1ncccc1O[C@H]1CO[C@H]2[C@@H]1OC[C@@H]2NC(=O)NCCCn1nc(C(F)(F)F)cc1C [Example 243, 1-[(3S,3aR,6S,6aS)-6-(2-Methyl-pyridin-3-yloxy)-hexahydro-furo[3,2-b]furan-3-yl]-3-[3-(5-methyl-3-tri-fluoromethyl-pyrazol-1-yl)-propyl]-urea]	0.041
Cc1ncccc1O[C@H]1CO[C@H]2[C@@H]1OC[C@@H]2NC(=O)NC(C)CN1CCCC1=O (stereo partly drawn) [Example 244, 1-[1-Methyl-2-(2-oxo-pyrrolidin-1-yl)-ethyl]-3-[(3S,3aR,6S,6aS)-6-(2-methyl-pyridin-3-yloxy)-hexahydro-furo[3,2-b]furan-3-yl]-urea]	0.577
Cc1ncccc1O[C@H]1CO[C@H]2[C@@H]1OC[C@@H]2NC(=O)NC1CCC(=O)N(C)C1 (stereo partly drawn) [Example 245, 1-(1-Methyl-6-oxo-piperidin-3-yl)-3-[(3S,3aR,6S,6aS)-6-(2-methyl-pyridin-3-yloxy)-hexahydro-furo[3,2-b]furan-3-yl]-urea]	0.825
Cc1ncccc1O[C@H]1CO[C@H]2[C@@H]1OC[C@@H]2NC(=O)NC1CC(=O)N(C(C)C)C1 (stereo partly drawn) [Example 246, 1-(1-Isopropyl-5-oxo-pyrrolidin-3-yl)-3-[(3S,3aR,6S,6aS)-6-(2-methyl-pyridin-3-yloxy)-hexahydro-furo[3,2-b]furan-3-yl]-urea]	0.317
Cc1ncccc1O[C@H]1CO[C@H]2[C@@H]1OC[C@@H]2NC(=O)NC1CC(=O)N(c2ccccc2)C1 (stereo partly drawn) [Example 247, 1-[(3S,3aR,6S,6aS)-6-(2-Methyl-pyridin-3-yloxy)-hexahydro-furo[3,2-b]furan-3-yl]-3-(5-oxo-1-phenyl-pyrrolidin-3-yl)-urea]	0.065
Cc1ncccc1O[C@H]1CO[C@H]2[C@@H]1OC[C@@H]2NC(=O)NC1(C#N)CCOCC1 [Example 248, 1-(4-Cyano-tetrahydro-pyran-4-yl)-3-[(3S,3aR,6S,6aS)-6-(2-methyl-pyridin-3-yloxy)-hexahydro-furo[3,2-b]furan-3-yl]-urea]	3.5
Cc1ncccc1O[C@H]1CO[C@H]2[C@@H]1OC[C@@H]2NC(=O)NC1(C)CCCCC1 [Example 249, 1-(1-Methyl-cyclohexyl)-3-[(3S,3aR,6S,6aS)-6-(2-methyl-pyridin-3-yloxy)-hexahydro-furo[3,2-b]furan-3-yl]-urea]	0.073
Cc1ncccc1O[C@H]1CO[C@H]2[C@@H]1OC[C@@H]2NC(=O)NC(C)(C)c1ccncc1 [Example 250, 1-(1-Methyl-1-pyridin-4-yl-ethyl)-3-[(3S,3aR,6S,6aS)-6-(2-methyl-pyridin-3-yloxy)-hexahydro-furo[3,2-b]furan-3-yl]-urea]	3.12
Cc1ncccc1O[C@H]1CO[C@H]2[C@@H]1OC[C@@H]2NC(=O)NCCN1CCCCC1=O [Example 251, 1-[(3S,3aR,6S,6aS)-6-(2-Methyl-pyridin-3-yloxy)-hexahydro-furo[3,2-b]furan-3-yl]-3-[2-(2-oxo-piperidin-1-yl)-ethyl]-urea]	1.56
Cc1ncccc1O[C@H]1CO[C@H]2[C@@H]1OC[C@@H]2NC(=O)NC1CCN(C)C1=O (stereo partly drawn) [Example 252, 1-(1-Methyl-2-oxo-pyrrolidin-3-yl)-3-[(3S,3aR,6S,6aS)-6-(2-methyl-pyridin-3-yloxy)-hexahydro-furo[3,2-b]furan-3-yl]-urea]	3.52
Cc1ncccc1O[C@H]1CO[C@H]2[C@@H]1OC[C@@H]2NC(=O)NCC1CC(=O)N(C(C)C)C1 (stereo partly drawn) [Example 253, 1-(1-Isopropyl-5-oxo-pyrrolidin-3-ylmethyl)-3-[(3S,3aR,6S,6aS)-6-(2-methyl-pyridin-3-yloxy)-hexahydro-furo[3,2-b]furan-3-yl]-urea]	0.792
CCN1CC(CNC(=O)N[C@H]2CO[C@H]3[C@@H]2OC[C@@H]3Oc2cccnc2C)CC1=O (stereo partly drawn) [Example 254, 1-(1-Ethyl-5-oxo-pyrrolidin-3-ylmethyl)-3-[(3S,3aR,6S,6aS)-6-(2-methyl-pyridin-3-yloxy)-hexahydro-furo[3,2-b]furan-3-yl]-urea]	0.882
Cc1ncccc1O[C@H]1CO[C@H]2[C@@H]1OC[C@@H]2NC(=O)NCC1CCC(=O)N1C (stereo partly drawn) [Example 255, 1-(1-Methyl-5-oxo-pyrrolidin-2-ylmethyl)-3-[(3S,3aR,6S,6aS)-6-(2-methyl-pyridin-3-yloxy)-hexahydro-furo[3,2-b]furan-3-yl]-urea]	0.545
Cc1ncccc1O[C@H]1CO[C@H]2[C@@H]1OC[C@@H]2NC(=O)NC1CC(C)CC(C)(C)C1 (stereo partly drawn) [Example 256, 1-[(3S,3aR,6S,6aS)-6-(2-Methyl-pyridin-3-yloxy)-hexahydro-furo[3,2-b]furan-3-yl]-3-(3,3,5-trimethyl-cyclohexyl)-urea]	0.003
Cc1ncccc1O[C@H]1CO[C@H]2[C@@H]1OC[C@@H]2NC(=O)NC1CCC(C)CC1 (stereo partly drawn) [Example 257, 1-(4-Methyl-cyclohexyl)-3-[(3S,3aR,6S,6aS)-6-(2-methyl-pyridin-3-yloxy)-hexahydro-furo[3,2-b]furan-3-yl]-urea]	0.003
Cc1ncccc1O[C@H]1CO[C@H]2[C@@H]1OC[C@@H]2NC(=O)NC1CCCC(C)C1 (stereo partly drawn) [Example 258, 1-(3-Methyl-cyclohexyl)-3-[(3S,3aR,6S,6aS)-6-(2-methyl-pyridin-3-yloxy)-hexahydro-furo[3,2-b]furan-3-yl]-urea]	0.002
Cc1ncccc1O[C@H]1CO[C@H]2[C@@H]1OC[C@@H]2NC(=O)NC1CCCCC1C (stereo partly drawn) [Example 259, 1-(2-Methyl-cyclohexyl)-3-[(3S,3aR,6S,6aS)-6-(2-methyl-pyridin-3-yloxy)-hexahydro-furo[3,2-b]furan-3-yl]-urea]	0.005
Cc1ncccc1O[C@H]1CO[C@H]2[C@@H]1OC[C@@H]2NC(=O)NC1CCC(C(C)(C)C)CC1 (stereo partly drawn) [Example 260, 1-(4-tert-Butyl-cyclohexyl)-3-[(3S,3aR,6S,6aS)-6-(2-methyl-pyridin-3-yloxy)-hexahydro-furo[3,2-b]furan-3-yl]-urea]	0.008
Cc1ncccc1O[C@H]1CO[C@H]2[C@@H]1OC[C@@H]2NC(=O)NC1CCCC(C)C1C (stereo partly drawn) [Example 261, 1-(2,3-Dimethyl-cyclohexyl)-3-[(3S,3aR,6S,6aS)-6-(2-methyl-pyridin-3-yloxy)-hexahydro-furo[3,2-b]furan-3-yl]-urea]	0.003
Cc1ncccc1O[C@H]1CO[C@H]2[C@@H]1OC[C@@H]2NC(=O)NC1CC2CC1C1CCCC21 (stereo partly drawn) [Example 262, 1-[(3S,3aR,6S,6aS)-6-(2-Methyl-pyridin-3-yloxy)-hexahydro-furo[3,2-b]furan-3-yl]-3-(octahydro-4,7-methano-inden-5-yl)-urea]	0.002
Cc1ncccc1O[C@H]1CO[C@H]2[C@@H]1OC[C@@H]2NC(=O)NC1CC(C)CCC1C(C)C (stereo partly drawn) [Example 263, 1-(2-Isopropyl-5-methyl-cyclohexyl)-3-[(3S,3aR,6S,6aS)-6-(2-methyl-pyridin-3-yloxy)-hexahydro-furo[3,2-b]furan-3-yl]-urea]	0.025
Cc1ncccc1O[C@H]1CO[C@H]2[C@@H]1OC[C@@H]2NC(=O)NC1CCC(c2ccccc2)CC1 (stereo partly drawn) [Example 264, 1-[(3S,3aR,6S,6aS)-6-(2-Methyl-pyridin-3-yloxy)-hexahydro-furo[3,2-b]furan-3-yl]-3-(4-phenyl-cyclohexyl)-urea]	0.006
Cc1ncccc1O[C@H]1CO[C@H]2[C@@H]1OC[C@@H]2NC(=O)N[C@@H]1CCCC[C@H]1C(C)(C)C [Example 265, 1-((1R,2S)-2-tert-Butyl-cyclohexyl)-3-[(3S,3aR,6S,6aS)-6-(2-methyl-pyridin-3-yloxy)-hexahydro-furo[3,2-b]furan-3-yl]-urea]	0.111

From patent publication US9540391B2, “Isomannide derivatives as inhibitors of soluble epoxide hydrolase” (SANOFI, priority 2013, dated 2017)
